Data reported in US10954214B2 (Janssen Pharmaceutica NV, priority 2016, dated 2021).

Legend:
[1] = test system: IL6 secretion by TMD8 ABC-DLBCL cells; experiment: Human IL6 Mesoscale assay (TMD-8); type: cell-based; conditions: Homo sapiens, TMD8; TMD-8 cells, 24 h
Procedure, shortened: (§1)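 Read-out: MSD electrochemiluminescence of IL6/IL10 in supernatants. Cells (100,000/well, no beta-mercaptoethanol) were exposed to compounds at 15 μM down to 58.6 nM, 1:2 dilutions, for 24 h at 37° C, 5% CO2. Normalised between DMSO (high) and RN486 (low) controls.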

Jurkat cells = experiment: PMA Induced IL2 Production In Jurkat Cells; type: cell-based; conditions: Homo sapiens, PMA/Ionomycin, 20 h, read-out: IL-2 prod h Jurkat PMA IC50
Method: Jurkat cells were maintained in complete RPMI 1640 media containing 10% fetal bovine serum, 10 mM HEPES, 100 units/mL of penicillin and 100 μg/mL of streptomycin. Prior to the assay, compounds were made 2- to 4-fold serial dilutions in DMSO. A volume of 10 μL of DMSO-diluted compound in each well were further diluted into 240 μL RPMI1640 complete media. Jurkat cells were harvested by centrifuge at 1200 RPM for 5 min, washed one time with RPMI 1640 media, and suspended in fresh complete RPMI 1640 media at concentration of 1.25×10^6 cell/mL. A volume of 160 uL of Jurkat cells (2×10^5 cells) were seeded in each well of 96 well plate-bottom plates. A volume of 20 uL of diluted compound in RMPI 1640 complete media were added to each well and incubated with Jurkat cells for 30 min at 37° C. in a 5% CO2 incubator. A volume 20 μL of diluted PMA/Ionomycin (81 nM/1.3 uM respectively, ebioscience, catalog number 00-4970-93) in RMPI 1640 complete media were added to each well. After incubation at 37° C. in 5% CO2 incubator for 20 h, supernatants were harvested. IL-2 concentration was assessed by ELISA (IL2 Duoset, R&D Systems, catalog number DY202). Colorimetric intensity at 450 nm was read by Spectramax plate reader and analyzed with Softmax Pro software. Cell viability was assessed by Cell Titer Glo kit (Promega, catalog number G7571) using Victor Luminescence reader (Victor 3V 4202938 by Perkin Elmer).

OCI-Ly3 cells = experiment: 4-day proliferation assay, OCI-Ly3; type: cell-based, human; conditions: Homo sapiens, 96 h, 4 days incubation, CellTiterGLO, read-out: Anti-proliferation: OCI-LY-3 IC50
Procedure, shortened: (§2)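 TMD8 and OCI-Ly3 cells were seeded at 10,000 per well and grown 4 days at 37° C, 5% CO2 without beta-mercaptoethanol. Viability was read by CellTiter-Glo luminescence. IC50 and Hill slope were fitted relative to the low control median.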

[2] = biological target: full-length MALT1 protein (Strep-MALT1(1-824)-His) (Homo sapiens (Human), UniProt Q9UDY8); experiment: MALT1 Biochemical Protease Assay (Ac-LRSR-AMC substrate); conditions: 10 nM FL MALT1, 200 μM Ac-LRSR-AMC, 4 h at RT; read-out: MALT1_Biochemical activity (Ac-LRSR-amc) IC50
Procedure, shortened: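 Full-length MALT1 pre-incubated with compounds (30 μM to 0.5 nM, 11 threefold steps) for 50 min at RT. After Ac-LRSR-AMC was added, the reaction ran 4 h at RT and AMC fluorescence was read. IC50 and Hill slope from curve fitting against no-enzyme and no-compound controls.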

TMD8 cells = experiment: 4-day proliferation assay, TMD8; type: cell-based; conditions: Homo sapiens, 96 h, 4 days incubation, CellTiterGLO, read-out: Anti-proliferation: TMD-8 IC50
Procedure, shortened: as §2

[3] = test system: IL6 secretion by OCI-LY3 ABC-DLBCL cells; experiment: Human IL6 Mesoscale assay (OCI-LY3); type: cell-based; conditions: Homo sapiens, 24 h
Procedure, shortened: as §1

[4] = test system: IL10 secretion by TMD8 ABC-DLBCL cells; experiment: Human IL10 Mesoscale assay (TMD-8); type: cell-based; conditions: Homo sapiens, TMD8; TMD-8 cells, 24 h
Procedure, shortened: as §1

[5] = test system: IL10 secretion by OCI-LY3 ABC-DLBCL cells; experiment: Human IL10 Mesoscale assay (OCI-LY3); type: cell-based; conditions: Homo sapiens, 24 h
Procedure, shortened: as §1

Sequence of full-length MALT1 protein (Strep-MALT1(1-824)-His) (Q9UDY8 whole entry): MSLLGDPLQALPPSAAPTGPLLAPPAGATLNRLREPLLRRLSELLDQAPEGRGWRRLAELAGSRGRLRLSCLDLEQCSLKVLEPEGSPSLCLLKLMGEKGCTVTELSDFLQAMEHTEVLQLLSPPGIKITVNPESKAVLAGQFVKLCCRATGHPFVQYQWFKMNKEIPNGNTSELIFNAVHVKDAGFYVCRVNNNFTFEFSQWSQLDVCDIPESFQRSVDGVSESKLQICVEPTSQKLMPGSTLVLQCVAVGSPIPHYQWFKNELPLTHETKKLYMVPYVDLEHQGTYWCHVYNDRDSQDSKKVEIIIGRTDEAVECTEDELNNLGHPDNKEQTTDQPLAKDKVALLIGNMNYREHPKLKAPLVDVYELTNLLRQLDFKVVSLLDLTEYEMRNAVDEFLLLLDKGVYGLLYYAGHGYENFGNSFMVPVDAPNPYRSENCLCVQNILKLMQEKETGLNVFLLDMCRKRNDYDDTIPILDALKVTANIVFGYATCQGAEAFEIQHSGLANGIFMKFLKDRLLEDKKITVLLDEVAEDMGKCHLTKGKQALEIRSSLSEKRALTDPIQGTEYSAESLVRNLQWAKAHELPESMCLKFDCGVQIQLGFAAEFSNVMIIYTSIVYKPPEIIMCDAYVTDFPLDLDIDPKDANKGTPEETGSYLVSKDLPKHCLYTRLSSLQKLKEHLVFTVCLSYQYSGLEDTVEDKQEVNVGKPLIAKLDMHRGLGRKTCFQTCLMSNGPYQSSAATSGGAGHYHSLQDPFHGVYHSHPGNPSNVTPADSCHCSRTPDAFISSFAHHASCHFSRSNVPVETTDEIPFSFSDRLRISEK

IC50 [1] | IC50 (Jurkat cells) | IC50 (OCI-Ly3 cells) | IC50 [2] | IC50 [3] | IC50 [4] | IC50 [5] | SMILES | IC50 (TMD8 cells)
~13500 nM | 680 nM | ~9550 nM | 977 nM | – | – | – | O=C(Nc1ccc(-n2nccn2)c(Cl)c1)c1cnn(-c2cccc3ccncc23)c1C(F)(F)F [Cpd 11, N-(3-chloro-4-(2H-1,2,3-triazol-2-yl)phenyl)-1-(isoquinolin-8-yl)-5-(trifluoromethyl)-1H-pyrazole-4-carboxamide] | 12600 nM
575 nM | 790 nM | 4790 nM | 631 nM | – | – | – | CC(C)c1c(C(=O)Nc2cnc(-n3nccn3)c(Cl)c2)cnn1-c1cccc2ncccc12 [Cpd 26, N-(5-chloro-6-(2H-1,2,3-triazol-2-yl)pyridin-3-yl)-5-isopropyl-1-(quinolin-5-yl)-1H-pyrazole-4-carboxamide] | 8710 nM
32 nM | 5.2 nM | 110 nM | 13 nM | – | – | – | O=C(Nc1cnc(-n2nccn2)c(Cl)c1)c1cnn(-c2cccc3ncccc23)c1C(F)(F)F [Cpd 8, N-(5-Chloro-6-(2H-1,2,3-triazol-2-yl)pyridin-3-yl)-1-(quinolin-5-yl)-5-(trifluoromethyl)-1H-pyrazole-4-carboxamide] | ~7590 nM
> 3020 nM | – | 540 nM | 58 nM | > 3020 nM | > 3020 nM | 2630 nM | O=C(Nc1cnc(-n2nccn2)c(Cl)c1)c1cnn(-c2cccc3scnc23)c1C(F)(F)F [Cpd 306, 1-(benzo[d]thiazol-4-yl)-N-(5-chloro-6-(2H-1,2,3-triazol-2-yl)pyridin-3-yl)-5-(trifluoromethyl)-1H-pyrazole-4-carboxamide] | 1510 nM
170 nM | – | 819 nM | 23 nM | 26 nM | 200 nM | 17 nM | CN(C)Cc1cnn(-c2ncc(NC(=O)c3cnn(-c4cccc5ncccc45)c3C(F)(F)F)cc2Cl)n1 [Cpd 137, N-(5-chloro-6-(4-((dimethylamino)methyl)-2H-1,2,3-triazol-2-yl)pyridin-3-yl)-1-(quinolin-5-yl)-5-(trifluoromethyl)-1H-pyrazole-4-carboxamide] | 2400 nM
– | 310 nM | – | 389 nM | – | – | – | N#Cc1cc(NC(=O)c2cnn(-c3cccc4ccccc34)c2C(F)(F)F)ccn1 [Cpd 1, N-(2-Cyanopyridin-4-yl)-1-(naphthalen-1-yl)-5-(trifluoromethyl)-1H-pyrazole-4-carboxamide] | –
141 nM | – | 265 nM | 12 nM | 54 nM | 162 nM | 81 nM | O=C(Nc1cnc(-n2nccn2)c(Cl)c1)c1cnn(-c2cccc3ncsc23)c1C(F)(F)F [Cpd 153, 1-(benzo[d]thiazol-7-yl)-N-(5-chloro-6-(2H-1,2,3-triazol-2-yl)pyridin-3-yl)-5-(trifluoromethyl)-1H-pyrazole-4-carboxamide] | 3800 nM
447 nM | – | 1080 nM | 33 nM | 95 nM | 339 nM | 132 nM | N#Cc1cc(NC(=O)c2cnn(-c3ncnc4ccsc34)c2C(F)(F)F)cnc1-n1nccn1 [Cpd 315, N-(5-cyano-6-(2H-1,2,3-triazol-2-yl)pyridin-3-yl)-1-(thieno[3,2-d]pyrimidin-4-yl)-5-(trifluoromethyl)-1H-pyrazole-4-carboxamide] | 6760 nM
13 nM | – | 344 nM | 15 nM | 18 nM | 25 nM | 18 nM | O=C(Nc1cnc(-n2nccn2)c(Cl)c1)c1cnn(-c2cccc3c(=O)[nH]ccc23)c1C(F)(F)F [Cpd 116, N-(5-chloro-6-(2H-1,2,3-triazol-2-yl)pyridin-3-yl)-1-(1-hydroxyisoquinolin-5-yl)-5-(trifluoromethyl)-1H-pyrazole-4-carboxamide] | 6920 nM
